This is an account of results in patent US12410124B2 (priority 2019, dated 2025).

The test system of assay [1] is midbrain p-α-s. The assay can be described thus: Midbrain p-α-s protein expression in MPTP Parkinson's disease model mouse (western-blotting). It is filed as in vivo. As to conditions: midbrain total protein, GAPDH internal reference, gavage 21 consecutive days after MPTP modeling.
Assay [2] has as its system midbrain pp38. The assay is described as follows: Midbrain pp38 protein expression in MPTP Parkinson's disease model mouse (western-blotting). It is filed as in vivo. As to conditions: midbrain total protein, GAPDH internal reference, gavage 21 days after MPTP modeling.
Assay [3] deals with primary glial cells. The assay can be described thus: Inhibition of the NO release of primary glial cells induced by LPS. In kind it is cell-based, rat.
For assay [4], the system named is hippocampus GFAP. The assay can be described thus: Number of hippocampus astrocytes with GFAP positive expression in MPTP Parkinson's disease model mouse (immunohistochemistry). In kind it is in vivo. As to conditions: hippocampus, MPTP Parkinson's disease model mouse, immunohistochemistry.

What is called inhibition is the percentage by which the read-out fell short of the control. Consider `O=C(/C=C/c1ccc(O)c(O)c1)OCCc1ccccc1` [Positive control group, caffeic acid phenethyl ester, reference compound], for which, in assay [1], the “Expression (p-α-s/GAPDH)” value came to 0.54 ± 0.12. Besides, the “Expression (pp38/GAPDH)” value in assay [2] came out at 0.58 ± 0.12. The inhibition at 2 µM in assay [3] (Rattus norvegicus, Glial cell, 2 μM, read-out: NO inhibition (%)) came out at 31.5 ± 5.43%. Also, the inhibition at 5 µM in assay [3] (Rattus norvegicus, Glial cell, 5 μM, read-out: NO inhibition (%)) was found to be 45.2 ± 3.85%. Besides, the inhibition at 10 µM in assay [3] (Rattus norvegicus, Glial cell, 10 μM, read-out: NO inhibition (%)) was 77.1 ± 4.37%. Moreover, in assay [4], the “Positive cell number (astrocytes with GFAP positive expression)” value turned out to be 86 ± 2.
“(E)-2-[(methylamino)methoxy]-4-{2-[1-(4′-nitro-[1,1′-biphenyl]-4-yl)ethylsulfonyl]ethenyl}phenylcarbamate [Compound M1-3]”: the “Expression (p-α-s/GAPDH)” value in assay [1] stood at 0.42 ± 0.05. In assay [2], the “Expression (pp38/GAPDH)” value is given as 0.42 ± 0.06. For the same compound, the “NO inhibition (%)” value in assay [3] (2 μM) was 23.93 ± 4.67%; in assay [3] (5 μM) it was 47.42 ± 4.43%; in assay [3] (10 μM), 73.41 ± 4.83%. Moreover, the “Positive cell number (astrocytes with GFAP positive expression)” value in assay [4] was 57 ± 3.
